Assay results from patent publication US20060025484A1 (priority 2003, published 2006).
Where “and” joins values, the source holds several entries; their conditions need not be identical. Equal values may be shown once.

Assays:
pancreatic carcinoma = experiment: Clinical phase II study in patients with pancreatic cancer; assay type: in vivo, human; set-up: key to Effect: partial remission (PR); minor response (MR)
Text: • Pancreatic carcinoma • Clinical study: • Phase II: ¼ partial remission (PR) (44 weeks)
+1 minor response (MR) (23 weeks)
A minor response was obtained in another patient.

pancreas lines = experiment: In-vitro experiments with various pancreas lines; assay type: cell-based
Procedure: Inhibiting effects in the low μg/mL range were also found in in-vitro experiments conducted with various pancreas lines, an inhibiting effect normally being achieved with an HECNU concentration of less than 10 μg/mL.

[1] = test system: tumors of the head and neck; experiment: In-vitro experiments on tumors of the head and neck; assay type: cell-based
[2] = test system: human tumor xenograft models; experiment: Subcutaneously implanted human tumor xenograft models in the naked mouse; assay type: in vivo; details: s.c. human xenografts: soft tissue sarcomas, testicular tumors, thymomas, melanomas, mammary carcinomas, lung tumors, Wilms' tumors, renal carcinomas
Text: Furthermore, the activity of HECNU has also been investigated in a number of subcutaneously implanted human tumor xenograft models in the naked mouse. […] These included soft tissue sarcomas, testicular tumors, thymomas, melanomas, mammary carcinomas, tumors of the lung, Wilms' tumors and renal carcinomas.

Water solubility = assay type: physicochemical
Text: (§1) It is known that bis-(2-chloroethyl)-1-nitrosourea (hereinafter also referred to as BCNU) can be used in the treatment of various types of cancer. BCNU is lipophilic but it has a low solubility in water, so that additional solvents such as ethanol must be used in application. […] There has therefore been a search for alternatives to BCNU.

[3] = Organ toxicity (bone marrow, lungs, kidney); assay type: in vivo; details: in comparison with BCNU
Text: as §1
(§2) It is assumed that this is attributable to the fact that when HECNU is used, there cannot be any carbamoyl reactions in the body because no carbamoylating metabolite is formed in its degradation in the body.

glutathione reductase = target: T1, glutathione reductase (Homo sapiens, UniProt P00390); experiment: Inhibition of glutathione reductase in the lungs; assay type: biochemical
T1 construct: from tissue; host or cells: lungs
T1 sequence (P00390 44-522): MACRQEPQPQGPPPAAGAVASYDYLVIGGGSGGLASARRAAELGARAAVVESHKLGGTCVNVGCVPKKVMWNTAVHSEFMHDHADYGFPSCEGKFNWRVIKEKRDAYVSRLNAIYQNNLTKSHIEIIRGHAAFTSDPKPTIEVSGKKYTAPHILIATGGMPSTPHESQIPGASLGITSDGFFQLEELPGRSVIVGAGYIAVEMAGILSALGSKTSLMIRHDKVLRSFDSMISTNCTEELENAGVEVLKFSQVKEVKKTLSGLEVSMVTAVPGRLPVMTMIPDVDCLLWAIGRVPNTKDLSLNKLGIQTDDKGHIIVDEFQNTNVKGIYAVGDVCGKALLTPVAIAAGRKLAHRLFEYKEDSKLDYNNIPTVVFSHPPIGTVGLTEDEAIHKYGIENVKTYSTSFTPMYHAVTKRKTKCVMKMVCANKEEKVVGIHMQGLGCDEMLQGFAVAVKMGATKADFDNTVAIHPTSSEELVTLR
Text: as §2

Carcinogenicity = assay type: in vivo; details: in comparison with BCNU
Text: as §2

[4] = Gastrointestinal toxicity in patients; assay type: in vivo, human; details: nausea and vomiting in patients
gastric carcinomas = details: phase II; cited from earlier work
colorectal carcinoma = details: phase II; cited from earlier work
malignant brain tumors = details: phase II; cited from earlier work
[5] = test system: malignant supratentorial gliomas; details: cited from earlier work
[6] = single patient with pancreas tumor, dose 100 mg/m^2

O=NN(CCCl)C(=O)NCCO [HECNU, 1-(2-chloroethyl)-1-nitroso-3-(2-hydroxyethyl)urea]
Partial remission, share of treated patients (pancreatic carcinoma; four treated patients with pancreatic cancer): ¼ | Effect (pancreatic carcinoma; [6]): PR and MR | Time to P (weeks) (pancreatic carcinoma; [6]): 44 weeks and 23 weeks | HECNU concentration achieving an inhibiting effect (pancreas lines): less than 10 μg/mL | Inhibiting effect in vitro [1]: an inhibiting effect was also achieved | Inhibiting effect on tumor growth [2]: good to very good inhibiting effects on tumor growth | Water solubility (Water solubility): good water solubility | Bone marrow, pulmonary and renal toxicity [3]: greatly reduced bone marrow toxicity, pulmonary toxicity and renal toxicity | Inhibition of glutathione reductase (glutathione reductase): does not inhibit glutathione reductase | Carcinogenicity (Carcinogenicity): much weaker carcinogen than BCNU | Gastrointestinal toxicity [4]: only a low gastrointestinal toxicity | Partial remission, patients treated (gastric carcinomas): 31% | Activity and response rate (colorectal carcinoma): only marginal activities and response rates | Antineoplastic activity (malignant brain tumors): significant antineoplastic activity | Toxicity profile ([5]; compared with other nitrosoureas): more favorable toxicity profile in comparison with other nitrosoureas | Activity ([5]; phase II, malignant supratentorial gliomas): demonstrated its activity
